Reference: ChEMBL document CHEMBL3988442, “University of Dundee, Small-Polar-MMV Screening Library” (2021)
“And” between values parts separate entries of the source, which are not always exact repeats. Equal entries are not always repeated.

Assays:
Leishmania donovani = experiment: Leishmania intramacrophage assay; assay type: functional, organism-based; conditions: Leishmania donovani
Histidine--tRNA ligase = molecular target: T1, Histidine--tRNA ligase (Leishmania infantum, UniProt A4I591); experiment: Leishmania infantum Histidine tRNA synthetase (LdHisRS); assay type: functional
T1 sequence (A4I591 whole entry): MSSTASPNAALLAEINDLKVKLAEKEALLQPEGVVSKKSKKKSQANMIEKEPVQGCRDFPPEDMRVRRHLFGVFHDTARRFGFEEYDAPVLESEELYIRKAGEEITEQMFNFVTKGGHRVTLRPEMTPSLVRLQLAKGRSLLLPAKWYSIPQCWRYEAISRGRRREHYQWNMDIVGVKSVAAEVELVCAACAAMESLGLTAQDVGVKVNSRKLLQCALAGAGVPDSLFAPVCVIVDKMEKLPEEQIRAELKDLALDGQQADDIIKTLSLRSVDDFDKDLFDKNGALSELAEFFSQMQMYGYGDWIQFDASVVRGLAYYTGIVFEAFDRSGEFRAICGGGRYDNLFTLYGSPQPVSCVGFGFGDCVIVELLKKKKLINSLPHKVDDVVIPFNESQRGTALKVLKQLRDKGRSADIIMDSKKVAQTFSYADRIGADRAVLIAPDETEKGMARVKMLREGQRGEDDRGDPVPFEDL

ClpP1P2 = ClpP1P2 (Mycobacterium tuberculosis (strain ATCC 25618 / H37Rv), UniProt P9WPC3+P9WPC5); experiment: in vitro assay to detect presence of AMC directly proportional to the activity of ClpP1P2. GHDDI collaboration.; assay type: functional
[1] = In vitro enzyme assay to detect hydrolysis of chlorophenol red-beta-D-[…] directly proportional to the number of Toxoplasma stably expressing beta-galactosidase; assay type: functional, organism-based, Toxoplasma gondii; conditions: Toxoplasma gondii
[2] = microbe, parasite or virus in culture; conditions: Mycobacterium tuberculosis, 96 h, read-out: pIC50 (converted)
[3] = microbe, parasite or virus in culture; conditions: Mycobacterium tuberculosis, 72 h, read-out: pIC50 (converted)
Plasmodium falciparum = experiment: Calibr Malaria Delayed Death Assay SOP; assay type: functional, organism-based; conditions: for IC50: Plasmodium falciparum
Tryptophan--tRNA ligase = Tryptophan--tRNA ligase (Mycobacterium tuberculosis (strain ATCC 25618 / H37Rv), UniProt P9WFT3); experiment: Biochemical assay for Mt-TrpRS; assay type: functional
Schistosoma mansoni = experiment: High throughput screening of compounds against Schistosoma mansoni motility; assay type: functional; parameters: dose or concentration left out as unconfirmed

## CN(Cc1ccncc1)C1COC2(CCN(Cc3cccs3)CC2)C1 (centres undefined)
Leishmania donovani
  IC50: > 50.1 µM

## CCN1CC(C(=O)NCc2ccc3c(c2)nc(C)n3C)CCC1=O (centres undefined)
Leishmania donovani
  IC50: > 50.1 µM

## Cn1ccnc1CN1CCC(F)(F)C2(CCN(c3cccnc3)C2)C1 (centres undefined)
Leishmania donovani
  IC50: > 50.1 µM

## O=C(c1ccc2ccc(N3CCN(CC4CC4)CC3)n2c1)N1CCCO1
Leishmania donovani
  IC50: > 50.1 µM

## Fc1ccc(CN2CCC(F)(F)C3(CCN(c4cnccn4)C3)C2)cc1 (centres undefined)
Leishmania donovani
  IC50: > 50.1 µM

## CN1CCN(C2COC3(CCN(Cc4ccc(F)cc4)CC3)C2)CC1 (centres undefined)
Leishmania donovani
  IC50: > 50.1 µM

## CC(NC(=O)Cn1ccnc1)c1ccc(OCC2CC2)c(F)c1 (centres undefined)
Leishmania donovani
  IC50: > 50.1 µM

## CCOc1ccc(CNCCCn2ccnc2)cc1Cl
Leishmania donovani
  IC50: 12.6 µM

## CC(O)CN1CCN(Cc2csc(-c3ncccn3)n2)CC1 (centres undefined)
Leishmania donovani
  IC50: > 50.1 µM

## CC(NCc1ccsc1)c1ccc2c(c1)NC(=O)CO2 (centres undefined)
Leishmania donovani
  IC50: > 50.1 µM

## O=C(CCc1cscn1)N1CCCC(n2ccnc2)C1 (centres undefined)
Leishmania donovani
  IC50: > 50.1 µM

## c1cncc(COC[C@H]2CC[C@H]3[C@H](CCN3Cc3nccs3)O2)c1
Leishmania donovani
  IC50: > 50.1 µM

## COc1ccc(OCCc2sc(C3(O)CCCNCC3)nc2C)cc1 (centres undefined)
Leishmania donovani
  IC50: > 50.1 µM

## CCOc1ccc(CNCC(O)c2ccccc2)cc1Cl (centres undefined)
Leishmania donovani
  IC50: 29.6 µM

## c1ccc(C2CCN(c3cncc(-n4cccn4)n3)CC2)cc1
Leishmania donovani
  IC50: > 50.1 µM

## O=C(NCC(F)(F)F)c1ccncc1
Leishmania donovani
  IC50: > 50.1 µM

## Cc1ccc(N2CCCC(NCc3cscn3)C2)nn1 (centres undefined)
Leishmania donovani
  IC50: > 50.1 µM

## Cc1nn(C)cc1-c1cc(C(F)F)nc2sc(C(N)=O)c(N)c12
Leishmania donovani
  IC50: > 50.1 µM

## OCc1ccncc1NCc1cnc(-c2ccccn2)s1
Leishmania donovani
  IC50: > 50.1 µM

## FC(F)(F)c1cc(-c2cccs2)nc(N2CCN3CCCC3C2)n1 (centres undefined)
Leishmania donovani
  IC50: > 50.1 µM

## COCCNC(=O)c1ccc2ccc(N3CCN(CC4CC4)CC3)n2c1
Leishmania donovani
  IC50: > 50.1 µM

## CC1CCCN(CC(=O)N2CCC(c3ncc4c(n3)CCNC4)CC2)C1 (centres undefined)
Leishmania donovani
  IC50: > 50.1 µM

## Cc1nn(C)cc1-c1cc(C(F)(F)F)nc(NC2CCCCC2)n1
Leishmania donovani
  IC50: > 50.1 µM

## CCCn1nnc2c(sc3nc(N4CCOCC4)c4c(c32)CCC4)c1=O
Leishmania donovani
  IC50: > 50.1 µM

## CCOCCN1CCN(CC(O)c2ccc(OC)cc2)CC1 (centres undefined)
Leishmania donovani
  IC50: > 50.1 µM

## C1CCc2nnc(CNc3nc(C4CC4)nc4c3CCNCC4)n2CC1
Leishmania donovani
  IC50: > 50.1 µM

## Cc1cc(CN2CCCC(Cn3cncn3)C2)on1 (centres undefined)
Leishmania donovani
  IC50: > 50.1 µM

## NC(=O)c1cnc2n1CCN(C(=O)c1ccc(Cn3cccc3)cc1)C2
Histidine--tRNA ligase
  IC50: 22.7 µM and 17.3 µM
ClpP1P2
  IC50: > 100 µM

## O=C(Nc1nccs1)c1csc(NC2CCCC2)n1
[1]
  IC50: 4.36 µM
Histidine--tRNA ligase
  IC50: 30.3 µM and 43.9 µM
[2]
  IC50: 34.5 µM
[3]
  IC50: 28.4 µM

## Clc1cc(CN2CCCN3CCCC3C2)c2ncccc2c1 (centres undefined)
Histidine--tRNA ligase
  IC50: 26.6 µM and 21.9 µM
Plasmodium falciparum
  pIC50: 5.897
  IC50: 1300 nM
[2]
  IC50: 12.2 µM
[3]
  IC50: 8.48 µM

## COCC(O)CNc1cncc(Br)c1 (centres undefined)
Tryptophan--tRNA ligase
  IC50: > 195 µM
Histidine--tRNA ligase
  IC50: > 100 µM

## COc1ccc(NC(=O)Cn2nc(C)c(C(C)=O)c2C)cc1
[1]
  IC50: 3.61 µM
Histidine--tRNA ligase
  IC50: 17.2 µM and 14 µM
Plasmodium falciparum
  pIC50: 6.455
  IC50: 421 nM
[2]
  IC50: 19 µM
[3]
  IC50: 22.1 µM

## CCn1nc2c(cc1=O)CN(c1ncnc3sccc13)CC2
[1]
  IC50: 15 µM
Histidine--tRNA ligase
  IC50: 15.5 µM and 11.5 µM

## CCC[C@@H]1CN(C(=O)c2cc3ccccc3cc2O)C[C@H]1N(C)C
Histidine--tRNA ligase
  IC50: 38 µM and 45 µM
ClpP1P2
  IC50: > 100 µM

## Cc1cc(C)n(CC(=O)N2C[C@@H]3CC[C@H](C2)N(CC2CCC2)C3)c(=O)n1
Histidine--tRNA ligase
  IC50: 16.8 µM and 12 µM
ClpP1P2
  IC50: > 100 µM

## Cc1c(CN2CCOCC2)c(O)n(CCO)c(=O)c1C#N
Tryptophan--tRNA ligase
  IC50: > 195 µM
Histidine--tRNA ligase
  IC50: 35.3 µM and 35.6 µM

## CC(=O)c1c(C)nn(CC(=O)Nc2ccc(Br)cc2)c1C
[1]
  IC50: 7.32 µM
Histidine--tRNA ligase
  IC50: 6.08 µM and 7.13 µM
[3]
  IC50: 8.6 µM

## CNc1cc2c(nn1)CCN(C(=O)c1coc(Br)c1)C2
Histidine--tRNA ligase
  IC50: 51.3 µM and 66.4 µM
ClpP1P2
  IC50: > 100 µM

## CCN1c2ccc(-c3cncn3CCCn3ccnc3C)cc2CC1C.Cl (centres undefined)
Histidine--tRNA ligase
  IC50: 39.6 µM and 37.5 µM
ClpP1P2
  IC50: > 100 µM
[2]
  IC50: 46.6 µM
[3]
  IC50: 42.9 µM

## CCn1nc2c(cc1=O)CN(c1ncnc3ccsc13)CC2
[1]
  IC50: 11.2 µM
Histidine--tRNA ligase
  IC50: 54.3 µM and 39.8 µM

## Cc1cnc2n(c1=O)CC(C(=O)Nc1cccc3cccnc13)CS2 (centres undefined)
Histidine--tRNA ligase
  IC50: 78.6 µM and 68.6 µM
Schistosoma mansoni
  Percent Effect: -85.49%

## CCC1CN(CC(=O)NCCN2CCCCCC2)c2ccccc2S1 (centres undefined)
Histidine--tRNA ligase
  IC50: 39.1 µM and 39.7 µM
Plasmodium falciparum
  pIC50: 5.947
  IC50: 1330 nM
[2]
  IC50: > 50.1 µM
[3]
  IC50: 44.8 µM

## CCCC(O)CNc1cncc(Br)c1 (centres undefined)
Tryptophan--tRNA ligase
  IC50: > 195 µM
Histidine--tRNA ligase
  IC50: > 100 µM
[2]
  IC50: 21.7 µM
[3]
  IC50: > 50.1 µM

## CC(=O)Nc1ccc2nc(CN(C)Cc3snnc3C)ccc2c1
Histidine--tRNA ligase
  IC50: 51.3 µM and 57.2 µM
ClpP1P2
  IC50: > 100 µM

## COc1ccccc1C(=O)NC(c1ccccn1)[C@H]1CC[C@H](CN)CC1 (some centres undefined)
Tryptophan--tRNA ligase
  IC50: > 195 µM
Histidine--tRNA ligase
  IC50: 9.74 µM and 9.59 µM

## Cn1nc2c(cc1=O)CN(CCc1nc3ccccc3c(=O)[nH]1)CC2
Histidine--tRNA ligase
  IC50: 67.7 µM and 54.2 µM
Schistosoma mansoni
  Percent Effect: -34.74%

## Cc1cc(NC(=O)CN2CCc3nn(C)c(=O)cc3C2)on1
Histidine--tRNA ligase
  IC50: 71.2 µM and 54.8 µM
Schistosoma mansoni
  Percent Effect: -32.24%
